Values after ≈ are worked out from the molar mass of the structure shown. Read-outs that look alike come from different tables or passages of the source. Numbered stars: 1 amine (or outer) side, 2 acyl side, 3 side chain; on linkers, the order of the positions; unused ones are H or OH. Bridge positions count the residues as written; N and C are the ends. Side chains are listed from the residue outwards. Peptide text beside a SMILES is read from it. * marks the point of attachment. C20 diacid = O=C(O)CCCCCCCCCCCCCCCCCCC(=O)*; γGlu = O=C(O)[C@H](CCC(=O)[*:2])N[*:1]
Legend:
[1] = target: T1, human amylin 3(a) receptor (human calcitonin receptor + RAMP-3) in BHK570 cells (Homo sapiens, UniProt O60896+P30988); assay: ASSAY (II)a functional assay, human amylin receptor (CRE luciferase); type: cell-based
T1 construct: expressed in transfected cells
Method in brief: (§1)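 Receptor activation is measured as cAMP-driven CRE-luciferase expression in BHK cells expressing the calcitonin receptor, with RAMP-3 co-expressed to form the amylin 3(a) receptor. Cells are exposed to compound for 3 hours at 37° C, and luciferase is then quantified by luminescence.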

[2] = target: T2, human calcitonin (a) receptor in BHK570 cells (Homo sapiens, UniProt P30988); assay: ASSAY (II)a functional assay, human calcitonin receptor (CRE luciferase); type: cell-based; details: read-out: hCTR funct. EC50
T2 construct: expressed in transfected cells
T2 sequence (P30988 25-474): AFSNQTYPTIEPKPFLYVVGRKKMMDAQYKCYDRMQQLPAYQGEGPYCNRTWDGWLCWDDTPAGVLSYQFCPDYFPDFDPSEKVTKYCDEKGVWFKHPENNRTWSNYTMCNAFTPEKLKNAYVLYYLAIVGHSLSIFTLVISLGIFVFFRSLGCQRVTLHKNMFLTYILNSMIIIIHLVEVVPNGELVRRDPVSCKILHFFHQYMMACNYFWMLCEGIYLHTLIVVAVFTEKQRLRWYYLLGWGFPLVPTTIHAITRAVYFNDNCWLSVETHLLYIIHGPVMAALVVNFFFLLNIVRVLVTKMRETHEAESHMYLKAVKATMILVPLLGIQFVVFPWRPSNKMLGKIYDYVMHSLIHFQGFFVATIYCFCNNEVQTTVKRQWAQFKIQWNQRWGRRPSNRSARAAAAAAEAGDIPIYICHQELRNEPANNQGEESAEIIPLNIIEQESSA
Method in brief: as §1

[3] = target: T3, human amylin receptor (membranes from Amylin 3(a)/CRE-luc cells) (Homo sapiens, UniProt O60896+P30988); assay: ASSAY (V) binding to the human amylin receptor (SPA, 125I-rat amylin);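 further: competition binding of cell membranes (35 ng/µL) mixed with SPA beads in 384-well plates at 40 µL total volume, read by scintillation counting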
T3 construct: expressed in transfected cells
T3 sequence (P30988 25-474): T2 sequence (P30988 25-474)
T3 sequence (O60896 24-148 partner): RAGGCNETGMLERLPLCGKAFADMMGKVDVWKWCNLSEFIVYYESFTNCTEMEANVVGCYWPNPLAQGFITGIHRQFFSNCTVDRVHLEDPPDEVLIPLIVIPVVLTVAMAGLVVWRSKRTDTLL

[4] = target: T4, human calcitonin receptor (Homo sapiens, UniProt P30988); assay: ASSAY (VII) binding to the human calcitonin receptor (SPA, 125I-Calcitonin); details: read-out: hCTR bind IC50;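 further: cell membranes (35 ng/µL) combined with SPA beads in 40 µL of pH 7.4 Hepes buffer, 384-well format, signal counted on a TopCounter instrument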
T4 construct: expressed in transfected cells
T4 sequence (P30988 25-474): T2 sequence (P30988 25-474)
Procedure: Membranes were prepared in the following way; the cells were rinsed with PBS and incubated with Versene for approximately 5 min before harvesting. The cells were flushed with PBS and the cell-suspension was centrifuged for 5 min at 1000 rpm. […] The resulting pellet was resuspended in buffer 2 and protein concentration was measured (BCA protein Assay, Pierce). The homogenate was kept cold during the whole procedure. The membranes were kept at −80° C. until use. Assay was performed in a 384 well Optiplate (PerkinElmer) in a total volume of 40 ul. Membranes were mixed with SPA beads. Final concentration of membranes 35 ng/μL final and Final concentration of SPA beads was 0.05 mg/well. Test-compounds were dissolved in DMSO and further diluted in assay buffer (50 mM Hepes, pH 7.4, 1 mM CaCl2, 5 mM MgCl2, 0.1% OA and 0.02% Tween20). […] Samples were analyzed on TopCounter™ (Packard).

[5] = ASSAY (IV) determination of solubility; type: physicochemical
Method in brief: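 UPLC read-out of polypeptide concentration after centrifugation. Samples: aqueous polypeptide stock ([…]) + 100 mM buffer 1:1, glycylglycine pH 3.0–5.0 or bistrispropane pH 6.0–8.0; 18 h, RT.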

[6] = hCTR funct. EC50 divided by hAmylin-R funct. EC50
[7] = hCTR funct. EC50 over hAmylin-R funct. EC50
[8] = human functional selectivity: hCTR funct. EC50 / hAmylin-R funct. EC50
[9] = Table 5, selectivity, hCTR bind IC50 / hAmylin-R bind IC50
[10] = Table 5a, selectivity, hCTR bind IC50 / hAmylin-R bind IC50
[11] = Table 5b, selectivity, hCTR bind IC50 / hAmylin-R bind IC50
[12] = Table 5c, selectivity, hCTR bind IC50 / hAmylin-R bind IC50
[13] = Table 7, human binding selectivity, included for comparison
[14] = Table 7a (preferred compounds), human binding selectivity, included for comparison
[15] = ratio of human calcitonin receptor binding IC50 to human amylin receptor binding IC50
[16] = bistrispropane buffer, pH 6.5, read-out: Solubility pH 6.5 Concentration
[17] = bistrispropane buffer, pH 7.5, read-out: Solubility pH 7.5 Concentration
[18] = bistrispropane buffer, pH 6.0, read-out: Solubility pH 6.0 Concentration
[19] = bistrispropane buffer, pH 7.0, read-out: Solubility pH 7.0 Concentration
[20] = bistrispropane buffer, pH 8.0, read-out: Solubility pH 8.0 Concentration
[21] = glycylglycine buffer, pH 4.0, read-out: Solubility pH 4.0 Concentration
[22] = glycylglycine buffer, pH 5.0, read-out: Solubility pH 5.0 Concentration

| Structure (SMILES) | Ratio hCT/hAmylin funct. [1, 6] | Ratio hCT/hAmylin funct. [1, 7] | Ratio hCT/hAmylin funct. [1, 8] | EC50 [2] | Ratio hCT/hAmylin binding [3, 9] | Ratio hCT/hAmylin binding [3, 10] | Ratio hCT/hAmylin binding [3, 11] | Ratio hCT/hAmylin binding [3, 12] | Ratio hCT/hAmylin binding [3, 13] | Ratio hCT/hAmylin binding [3, 14] | Ratio hCT/hAmylin binding [3, 15] | solubility at 18 h [5, 16] | solubility at 18 h [5, 17] | solubility at 18 h [5, 18] | solubility at 18 h [5, 19] | solubility at 18 h [5, 20] | solubility at 18 h [5, 21] | solubility at 18 h [5, 22] | other results |
| --- | --- | --- | --- | --- | --- | --- | --- | --- | --- | --- | --- | --- | --- | --- | --- | --- | --- | --- | --- |
| CC[C@H](C)[C@H](NC(=O)[C@H](C)NC(=O)CNC(=O)[C@H](Cc1ccccc1)NC(=O)[C@H](CC(N)=O)NC(=O)[C@@H]1CCCN1C(=O)[C@H](CO)NC(=O)[C@H](CO)NC(=O)[C@H](Cc1c[nH]cn1)NC(=O)[C@H](CCCNC(=N)N)NC(=O)[C@H](CC(C)C)NC(=O)[C@H](Cc1ccccc1)NC(=O)[C@H](CC(N)=O)NC(=O)[C@H](C)NC(=O)[C@H](CC(C)C)NC(=O)[C@H](CCCNC(=N)N)NC(=O)[C@H](CCC(N)=O)NC(=O)[C@@H](NC(=O)[C@H](C)NC(=O)[C@@H]1CSSC[C@H](NC(=O)[C@@H](N)CCCCNC(=O)COCCOCCNC(=O)CC[C@H](NC(=O)CCCCCCCCCCCCCCCCCCC(=O)O)C(=O)O)C(=O)N[C@@H](CC(N)=O)C(=O)N[C@@H]([C@@H](C)O)C(=O)N[C@@H](C)C(=O)N[C@@H]([C@@H](C)O)C(=O)N1)[C@@H](C)O)C(=O)N1CCC[C@H]1C(=O)N[C@@H](CO)C(=O)N[C@@H](CO)C(=O)N[C@H](C(=O)N[C@@H](CC(N)=O)C(=O)N[C@H](C(=O)NCC(=O)N[C@@H](CO)C(=O)N[C@@H](CC(N)=O)C(=O)N[C@H](C(=O)N[C@@H](Cc1ccc(O)cc1)C(N)=O)[C@@H](C)O)C(C)C)[C@@H](C)O [Example 41] | 16.7 | 16.7 | 16.7 | 4.35 nM | 49.9 | 49.9 | 49.9 | 49.9 | 49.9 | 49.9 | 49.9 |  |  |  |  |  |  |  | EC50 ([1]; human amylin receptor functional potency, assay (II), read-out: hAmylin-R funct. EC50): 0.26 nM; IC50 ([3]; Table 4, read-out: hAmylin-R bind IC50): 0.427 nM; IC50 [4]: 21.3 nM |
| CC[C@H](C)[C@H](NC(=O)[C@H](C)NC(=O)CNC(=O)[C@H](Cc1ccccc1)NC(=O)[C@H](CC(N)=O)NC(=O)[C@@H]1CCCN1C(=O)[C@H](CO)NC(=O)[C@H](CO)NC(=O)[C@H](Cc1c[nH]cn1)NC(=O)[C@H](CCCNC(=N)N)NC(=O)[C@H](CC(C)C)NC(=O)[C@H](Cc1ccccc1)NC(=O)[C@H](Cc1c[nH]cn1)NC(=O)[C@H](C)NC(=O)[C@H](CC(C)C)NC(=O)[C@H](CCCNC(=N)N)NC(=O)[C@H](CCC(N)=O)NC(=O)[C@@H](NC(=O)[C@H](C)NC(=O)[C@@H]1CSSC[C@H](NC(=O)[C@@H](N)CCCCNC(=O)COCCOCCNC(=O)CCCCCCCCCCCCCCCCCCC(=O)O)C(=O)N[C@@H](CC(N)=O)C(=O)N[C@@H]([C@@H](C)O)C(=O)N[C@@H](C)C(=O)N[C@@H]([C@@H](C)O)C(=O)N1)[C@@H](C)O)C(=O)N1CCC[C@H]1C(=O)N[C@@H](CO)C(=O)N[C@@H](CO)C(=O)N[C@H](C(=O)N[C@@H](CC(N)=O)C(=O)N[C@H](C(=O)NCC(=O)N[C@@H](CO)C(=O)N[C@@H](CC(N)=O)C(=O)N[C@H](C(=O)N[C@@H](Cc1ccc(O)cc1)C(N)=O)[C@@H](C)O)C(C)C)[C@@H](C)O [Example 90] | 7.2 |  | 7.2 | 0.236 nM | 42.2 | 42.2 | 42.2 | 42.2 | 42.2 | 42.2 | 42.2 | ≥ 200 µM | ≥ 200 µM | ≥ 200 µM | ≥ 200 µM | ≥ 200 µM | ≥ 200 µM | ≥ 200 µM | solubility at 18 h ([5]; glycylglycine buffer, pH 3.0, read-out: Solubility pH 3.0 Concentration): ≥ 200 µM |
| CC[C@H](C)[C@H](NC(=O)[C@H](C)NC(=O)CNC(=O)[C@H](Cc1ccccc1)NC(=O)[C@H](CC(N)=O)NC(=O)[C@@H]1CCCN1C(=O)[C@H](CO)NC(=O)[C@H](CO)NC(=O)[C@H](Cc1c[nH]cn1)NC(=O)[C@H](CCCNC(=N)N)NC(=O)[C@H](CC(C)C)NC(=O)[C@H](Cc1ccccc1)NC(=O)[C@H](CCC(=O)O)NC(=O)[C@H](C)NC(=O)[C@H](CC(C)C)NC(=O)[C@H](CCCNC(=N)N)NC(=O)[C@H](CCC(N)=O)NC(=O)[C@@H](NC(=O)[C@H](C)NC(=O)[C@@H]1CSSC[C@H](NC(=O)[C@@H](N)CCCCNC(=O)CC[C@H](NC(=O)CC[C@H](NC(=O)CCCCCCCCCCCCCCCCCCC(=O)O)C(=O)O)C(=O)O)C(=O)N[C@@H](CC(N)=O)C(=O)N[C@@H]([C@@H](C)O)C(=O)N[C@@H](C)C(=O)N[C@@H]([C@@H](C)O)C(=O)N1)[C@@H](C)O)C(=O)N[C@@H](CC(C)C)C(=O)N[C@@H](CO)C(=O)N[C@@H](CO)C(=O)N[C@H](C(=O)N1CCC[C@H]1C(=O)N[C@H](C(=O)NCC(=O)N1CCC[C@H]1C(=O)N[C@@H](CCC(=O)O)C(=O)N[C@H](C(=O)N[C@@H](Cc1ccc(O)cc1)C(N)=O)[C@@H](C)O)C(C)C)[C@@H](C)O [Example 121] (H-K([γGlu-γGlu-C20 diacid])CNTATCATQRLAEFLRHSSPNFGAILSSTPVGPETY-NH2; disulfide 2-7; N-terminus assumed) |  | 5.8 | 5.8 |  | 22.6 | 22.6 | 22.6 | 22.6 | 22.6 | 22.6 | 22.6 | ≥ 200 µM | ≥ 200 µM | ≥ 200 µM | ≥ 200 µM | ≥ 200 µM | ≥ 200 µM | ≥ 200 µM |  |
| CC[C@H](C)[C@H](NC(=O)[C@H](C)NC(=O)CNC(=O)[C@@H]1CCCN1C(=O)[C@H](CC(N)=O)NC(=O)[C@H](CC(N)=O)NC(=O)[C@H](CO)NC(=O)[C@H](CO)NC(=O)[C@H](Cc1c[nH]cn1)NC(=O)[C@H](CCCNC(=N)N)NC(=O)[C@H](CC(C)C)NC(=O)[C@H](Cc1ccccc1)NC(=O)[C@H](CCC(=O)O)NC(=O)[C@H](C)NC(=O)[C@H](CC(C)C)NC(=O)[C@H](CCCNC(=N)N)NC(=O)[C@H](CCC(N)=O)NC(=O)[C@@H](NC(=O)[C@H](C)NC(=O)[C@@H]1CSSC[C@H](NC(=O)[C@@H](N)CCCCNC(=O)CC[C@H](NC(=O)CC[C@H](NC(=O)CCCCCCCCCCCCCCCCCCC(=O)O)C(=O)O)C(=O)O)C(=O)N[C@@H](CC(N)=O)C(=O)N[C@@H]([C@@H](C)O)C(=O)N[C@@H](C)C(=O)N[C@@H]([C@@H](C)O)C(=O)N1)[C@@H](C)O)C(=O)N[C@@H](CC(C)C)C(=O)N[C@@H](CO)C(=O)N[C@@H](CO)C(=O)N[C@H](C(=O)N[C@@H](CC(N)=O)C(=O)N[C@H](C(=O)NCC(=O)N1CCC[C@H]1C(=O)N[C@@H](CCC(=O)O)C(=O)N[C@H](C(=O)N[C@@H](Cc1ccc(O)cc1)C(N)=O)[C@@H](C)O)C(C)C)[C@@H](C)O [Example 126] (H-K([γGlu-γGlu-C20 diacid])CNTATCATQRLAEFLRHSSNNPGAILSSTNVGPETY-NH2; disulfide 2-7 (inferred); N-terminus assumed) |  | 17.3 | 17.3 |  | 7.8 |  |  |  | 7.8 | 7.8 |  | 131 µM (≈ 594 µg/mL) | ≥ 200 µM | 64 µM (≈ 290 µg/mL) | 198 µM (≈ 898 µg/mL) |  | 7 µM (≈ 31.7 µg/mL) |  |  |

Reference: patent US9023789B2, “Amylin analogs and pharmaceutical compositions thereof” (Novo Nordisk A/S, priority 2012, dated 2015)
